Results reported in patent US9073876B2, “Flap modulators” (JANSSEN PHARMACEUTICA NV, priority 2013, dated 2015).

Tests used:
human FLAP = human FLAP (Homo sapiens (Human), UniProt P20292); experiment: FLAP binding assay (HTRF); details: human FLAP-containing membranes, HTRF format; average of two assay plates, duplicates; read-out: FLAP Binding wild type HTRF Ki
Summary of the method: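 Samples were run in duplicate on each of two assay plates, the results were averaged, and the signal was expressed as an HTRF ratio.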

[1] = tested on: leukotriene pathway in human whole blood (LTB4 levels); experiment: Human whole blood assay (LTB4); type: cell-based; details: human whole blood diluted 1:1 in RPMI, stimulated with calcium ionophore A23187; single replicate
Summary of the method: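 Blood (heparin) diluted 1:1 RPMI; compound pre-incubation 15 min, 37° Celsius; A23187 7 μg/mL, 30 min, 37° Celsius; plasma LTB4 by commercial kit. IC50 via 4-parameter equation.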

Chain of human FLAP (P20292 whole entry): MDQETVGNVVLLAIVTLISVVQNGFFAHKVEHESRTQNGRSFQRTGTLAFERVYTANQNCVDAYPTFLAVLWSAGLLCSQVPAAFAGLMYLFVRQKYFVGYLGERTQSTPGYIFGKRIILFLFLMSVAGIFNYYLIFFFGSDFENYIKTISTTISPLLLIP

SMILES	Ki (human FLAP)	IC50 [1]
Cc1cc(C)nc(Oc2c(C3CCC3)ccc(-c3cnc(N)cn3)c2F)n1 [Example 89, 5-{4-Cyclobutyl-3-[(4,6-dimethylpyrimidin-2-yl)oxy]-2-fluorophenyl}pyrazin-2-amine]	4 nM	22.2 nM
Nc1cnc(-c2ccc(C3CCC3)c(OCC(O)Cn3nncc3N)c2F)cn1 (racemic) [Example 66, racemic 1-(5-Amino-1H-1,2,3-triazol-1-yl)-3-(3-(5-aminopyrazin-2-yl)-6-cyclobutyl-2-fluorophenoxy)propan-2-ol]	422 nM	753 nM
Nc1cnc(-c2ccc(C3CCC3)c(Oc3cc(N)nc(Cc4ccccc4)n3)c2F)cn1 [Example 146, 6-[3-(5-Aminopyrazin-2-yl)-6-cyclobutyl-2-fluorophenoxy]-2-benzylpyrimidin-4-amine]	0.4 nM	4.5 nM
Nc1cnc(-c2ccc(C3CCC3)c(OCc3ccccc3C(=O)O)c2F)cn1 [Example 46, 2-{[3-(5-Aminopyrazin-2-yl)-6-cyclobutyl-2-fluorophenoxy]methyl}benzoic acid]	8 nM	5620 nM
Nc1cnc(-c2ccc(C3CCC3)c(Oc3nc(N)c4ccccc4n3)c2F)cn1 [Example 272, 2-[3-(5-Aminopyrazin-2-yl)-6-cyclobutyl-2-fluorophenoxy]quinazolin-4-amine]	0.5 nM	41.9 nM
Nc1cnc(-c2ccc(C3CCC3)c(OCc3cccc(S(F)(F)(F)(F)F)c3)c2F)cn1 [Example 80, 5-(4-Cyclobutyl-2-fluoro-3-{[3-(pentafluoro-lambda~6~- sulfanyl)benzyl]oxy}phenyl)pyrazin-2-amine]	304 nM	3290 nM

The remaining compounds from weak to strong by Ki (human FLAP), led by results:

Ki (human FLAP)	IC50 [1]	SMILES
94.7 nM	494 nM	Nc1ncc(-c2ccc(C3CCC3)c(Oc3ncccn3)c2F)cn1 [Example 160, 5-[4-Cyclobutyl-2-fluoro-3-(pyrimidin-2-yloxy)phenyl]pyrimidin-2-amine]
42 nM	300 nM	Cn1ccc(COc2c(C3CCC3)ccc(-c3cnc(N)cn3)c2F)n1 [Example 47, 5-{4-Cyclobutyl-2-fluoro-3-[(1-methyl-1H-pyrazol-3-yl)methoxy]phenyl}pyrazin-2-amine]
11 nM	263 nM	Nc1cnc(-c2ccc(C3CCC3)c(OCc3ccc(C(=O)O)cc3)c2F)cn1 [Example 5, 4-{[3-(5-Aminopyrazin-2-yl)-6-cyclobutyl-2-fluorophenoxy]methyl}benzoic acid]
